{
  "source": "patent EP1007024B1",
  "about": "(Pfizer Products Inc., priority 1997, dated 1999)",
  "key": {"[1]": {"test": "Screening test for inhibition of precipitation or gelation of sertraline lactate when chloride is added", "assay_type": "physicochemical", "procedure": "Sodium chloride was then added (as a concentrated solution) and the result observed. An excipient was considered beneficial if the solution remained clear and fluid. The more chloride that could be added to an excipient solution with the solution remaining dear, the more beneficial was the excipient."}, "physchem [2]": {"test": "physchem", "settings": "water"}, "[3]": {"test": "Screening of solubilizers for sertraline lactate solubility with and without chloride", "settings": "water"}, "physchem [4]": {"test": "physchem", "settings": "water, Sertraline Lactate Solubility, in water, excipient None"}, "[5]": {"settings": "oral administration of known immediate-release dosage forms, plasma; cited from earlier work"}, "[6]": {"settings": "male, human, in vivo", "procedure": "(§1) In a subset of a larger double-blind, randomized, placebo-controlled parallel group study, healthy male human subjects were divided into two groups (Study 1). […] The tablets were administered with 50 ml water. Group B received two placebo tablets. All subjects were dosed after an overnight fast.\n(§2) Analysis was carried out by capillary gas chromatography with electron capture detection. […] Tmax is the time at which Cmax is achieved.\n(§3) The data from these four subjects were not included in the pharmacokinetic averages."}, "clinical": {"test": "clinical", "settings": "human, in vivo, 200 mg", "procedure": "as §1, §2, §3"}, "[7]": {"test": "Side effects by visual analogue scales and PK/PD plots (Study I, Study II)", "assay_type": "in vivo, human", "procedure": "as §1\nPrior to dosing and each blood sampling time, each subject filled out a questionnaire, which consisted of a series of \"Visual Analogue Scales\" in which the subject was required to rate, on a scale of 0-10, the severity of certain potential side effects. The subjects were instructed that \"0\" indicated an absent effect and \"10\" indicated the worst possible effect The subjects were instructed to interpolate between 0 and 10 for moderate side effects.\nA total of 30 subjects completed Study I: 15 each in Groups A and B. For each side effect evaluated at 30 time points, a total of 900 individual visual-analogue-scale evaluations were obtained."}, "[8]": {"test": "Pharmacokinetics of 200 mg sertraline delivered to various portions of the gastrointestinal tract (four-way crossover)", "assay_type": "in vivo", "settings": "human, plasma", "procedure": "Dosing was via (1) oral tablets, or (2) infusion of a solution through a nasoenteric tube into the stomach, duodenum, or ileocecal region of the small intestine, or (3) infusion into the transverse colon via anal intubation.\nThe infusions were administered as a 2 mg/ml solution at a rate of 20 ml/min for 5 min.\nAnalysis was carried out by capillary gas chromatography with electron capture detection."}, "[9]": {"settings": "Group A, Ileocecal Infusion of 2 mg/ml solution"}, "[10]": {"settings": "Group A, Stomach Infusion of 2 mg/ml solution"}, "[11]": {"settings": "Group B, Colonic Infusion of 2 mg/ml solution"}, "[12]": {"settings": "Group B, Duodenal Infusion of 2 mg/ml solution"}},
  "note": "Counter-ions that a name gives are not always drawn. Like-named read-outs stand apart in the source and are kept apart here.",
  "data": [
    {"compound": "O=C1O[C@H]([C@@H](O)CO)C(O)=C1O", "note": "[Ascorbic acid]", "values": [
      {"measurement": "Observation After NaCI Addition", "setting": "[1]; sertraline lactate with excipient, NaCl 100 mM", "value": "predpitate"}
    ]},
    {"compound": "N[C@@H](Cc1c[nH]cn1)C(=O)O", "note": "[Histidine]", "values": [
      {"measurement": "Observation After NaCI Addition", "setting": "[1]; sertraline lactate with excipient, NaCl 150 mM", "value": "slight precipitate"}
    ]},
    {"compound": "CN[C@H]1CC[C@@H](c2ccc(Cl)c(Cl)c2)c2ccccc21", "note": "[sertraline hydrochloride]", "values": [
      {"measurement": "solubility", "setting": "physchem [2]", "value": 2.5, "unit": "mg/mL"}
    ]},
    {"compound": "CN[C@H]1CC[C@@H](c2ccc(Cl)c(Cl)c2)c2ccccc21", "note": "[sertraline lactate]", "values": [
      {"measurement": "Observation After NaCI Addition", "setting": "[1]; sertraline lactate in water alone (control), NaCl 38 mM", "value": "gel/precipitate"},
      {"measurement": "solubility", "setting": "[3]", "value": 125, "unit": "mg/mL"},
      {"measurement": "solubility", "setting": "physchem [4]", "value": "~125", "unit": "mg/mL"}
    ]},
    {"compound": "CN[C@H]1CC[C@@H](c2ccc(Cl)c(Cl)c2)c2ccccc21", "note": "[sertraline]", "values": [
      {"measurement": "Tmax", "setting": "[5]", "value": "6 to 7", "unit": "h"},
      {"measurement": "average Tmax", "setting": "[6]", "value": 6, "unit": "h"},
      {"measurement": "AUC", "setting": "clinical", "value": 1740, "unit": "ng·h/mL"},
      {"measurement": "Cmax", "setting": "clinical; male", "value": "~70", "unit": "ng/mL"},
      {"measurement": "side effect score for diarrhea vs plasma sertraline concentration curve", "setting": "[7]; Study 1, 200 mg bolus dose", "value": "clockwise hysteresis"},
      {"measurement": "PK/PD plot, average visual analogue score for nausea vs plasma sertraline concentration", "setting": "[7]; Study I, Group A, 200 mg bolus dose, Figure 1", "value": "clockwise hysteresis"},
      {"measurement": "subjects with emesis (regurgitation)", "setting": "[7]; Study II, 200 mg dose group", "value": "Four and four"},
      {"measurement": "Cmax", "setting": "[8]; [9]", "value": 27.3, "unit": "ng/mL"},
      {"measurement": "Tmax", "setting": "[8]; [9]", "value": 5, "unit": "h"},
      {"measurement": "Cmax", "setting": "[8]; [10]", "value": 35.6, "unit": "ng/mL"},
      {"measurement": "Tmax", "setting": "[8]; [10]", "value": 7, "unit": "h"},
      {"measurement": "Cmax", "setting": "[8]; Group B, Colonic Infusion (transverse colon) of 2 mg/ml solution", "value": 10.9, "unit": "ng/mL"},
      {"measurement": "AUC", "setting": "[8]; [11]", "value": 179, "unit": "ng·h/mL"},
      {"measurement": "Tmax", "setting": "[8]; [11]", "value": 4.4, "unit": "h"},
      {"measurement": "AUC", "setting": "[8]; [12]", "value": 1270, "unit": "ng·h/mL"},
      {"measurement": "Cmax", "setting": "[8]; [12]", "value": 48.8, "unit": "ng/mL"},
      {"measurement": "Tmax", "setting": "[8]; [12]", "value": 3.7, "unit": "h"},
      {"measurement": "Cmax", "setting": "[8]; po, Group A, Oral Tablet (two 100 mg immediate release tablets), group average", "value": 39.9, "unit": "ng/mL"},
      {"measurement": "Tmax", "setting": "[8]; po, Group A, Oral Tablet, group average", "value": 7, "unit": "h"},
      {"measurement": "AUC", "setting": "[8]; po, Group B, Oral Tablet", "value": 1150, "unit": "ng·h/mL"},
      {"measurement": "Tmax", "setting": "[8]; po, Group B, Oral Tablet", "value": 6.7, "unit": "h"},
      {"measurement": "Cmax", "setting": "[8]; po, Group B, Oral Tablet (two 100 mg immediate release tablets)", "value": 44.7, "unit": "ng/mL"}
    ]}
  ]
}
